What was measured:
[1] = tested on: NGN2 neurons (human iPS cell-derived excitatory neurons); assay: Optopatch excitability assay in NGN2 neurons; assay type: cell-based
Excerpt: To characterize the intrinsic excitability activity of human iPS cell-derived excitatory neurons with the Optopatch platform the two iPS cell lines, “11a” and “20b”, from Example 1 were used. These two iPS cell lines were derived from two neurologically healthy male subjects. The 11a and 20b iPS cells are converted into excitatory neurons using a transcriptional programming approach whereby the pro-neuronal transcription factor NEUROGENIN2 (NGN2) is overexpressed using doxycycline responsive lentiviral constructs as described in Example 1. This process drives the rapid conversion of iPS cells into neurons that resemble cortical excitatory neurons.
The resulting neurons are cryopreserved and subsequently thawed.
The thawed cells are co-cultured with primary rodent glia to facilitate neuronal electrophysiological maturation. To enable Optopatch measurements, the cells are transduced with lentiviral constructs expressing Optopatch components driven by the neuronal excitatory promoter CAMK2A and signals are recorded from the cells 2 weeks later. At the time of Optopatch measurements, the NGN2 excitatory neuron are homogeneous and electrophysiologically active, yielding highly stereotyped and reproducible data across cells, dishes, differentiation rounds and cell lines.
Optopatch measurements are carried out in a custom-built ultra-widefield fluorescence microscope, as described herein. Using this platform, intrinsic excitability properties are recorded for 11a and 20b NGN2 neuronal cultures at DIV25 in the presence of synaptic blockers NBQX, D-AP5 and Gabazine to block AMPA, NMDA and GABA currents, respectively. A custom blue light stimulus protocol of three 500 ms blue light steps of increasing intensity (1, 15 and 75 mW/cm^2) followed by two 2 second ramps of linearly increasing intensity (0.5-10 mW/cm^2 and 0.5-110 mW/cm^2) is used to elicit a range of activity from individual neurons. ˜50 to 100 neurons are simultaneously stimulated and recorded in a single field of view.
High signal-to-noise ratio (SNR) fluorescence-time traces are generated, and action potentials can be detected with high fidelity. Individual action potentials are detected for each of the hundreds of neurons and recorded with Optopatch and plotted on a spike raster plot, where each row represents a single neuron, and each dot represents a detected spike. While individual neurons show a diversity of spiking behavior throughout the stimulus protocol, the average firing rate of the population is remarkably similar for both cell lines.
The sensitivity of an excitability assay for detecting pharmacological modulation in NGN2 neurons using the well-characterized compound quinidine, which is reported to increase spike width and reduce spike activity is tested. […] These changes can be observed in the individual traces at 10 μM and 30 μM quinidine.
Additional quantification of both the response to quinidine and retigabine in is determined using an Optopatch excitability assay. Quinidine has been reported to block several voltage-, Na^+ and Ca^++ gated potassium channels (KNa1.1, KCa5.1, K2P16.1, Kv1.5, Kv1.7, Kv10.1, Kv10.2), including two-pore forming channels as well as voltage gated Na^+ channels.

[2] = molecular target: Kv7.2 (Homo sapiens, UniProt O43526); details: read-out: Kv7.2 EC50; cited from earlier work
[3] = maximum concentration tested (30 μM)

Sequence of Kv7.2 (O43526 whole entry): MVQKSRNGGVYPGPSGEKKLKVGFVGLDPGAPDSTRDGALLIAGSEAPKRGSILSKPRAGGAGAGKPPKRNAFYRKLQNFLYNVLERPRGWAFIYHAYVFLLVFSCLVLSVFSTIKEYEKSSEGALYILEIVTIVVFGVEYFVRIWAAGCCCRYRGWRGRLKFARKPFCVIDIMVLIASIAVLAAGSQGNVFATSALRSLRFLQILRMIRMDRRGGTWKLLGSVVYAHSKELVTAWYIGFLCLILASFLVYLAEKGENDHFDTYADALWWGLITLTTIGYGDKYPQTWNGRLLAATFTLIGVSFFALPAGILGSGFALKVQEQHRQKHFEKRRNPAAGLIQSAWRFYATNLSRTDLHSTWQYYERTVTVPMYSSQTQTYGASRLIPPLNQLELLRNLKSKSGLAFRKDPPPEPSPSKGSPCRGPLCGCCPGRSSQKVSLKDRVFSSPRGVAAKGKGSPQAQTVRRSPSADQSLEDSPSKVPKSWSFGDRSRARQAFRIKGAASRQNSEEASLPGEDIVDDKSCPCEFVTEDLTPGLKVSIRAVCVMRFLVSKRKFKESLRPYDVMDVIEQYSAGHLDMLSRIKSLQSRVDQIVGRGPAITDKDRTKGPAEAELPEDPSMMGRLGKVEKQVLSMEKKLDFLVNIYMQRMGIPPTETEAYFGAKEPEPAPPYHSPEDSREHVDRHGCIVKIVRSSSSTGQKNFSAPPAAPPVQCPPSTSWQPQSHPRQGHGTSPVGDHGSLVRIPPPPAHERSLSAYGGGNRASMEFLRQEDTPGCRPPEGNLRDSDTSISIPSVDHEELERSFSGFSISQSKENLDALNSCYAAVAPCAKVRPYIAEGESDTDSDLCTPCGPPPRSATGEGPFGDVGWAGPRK

| Structure (SMILES) | changes to spike waveform and firing rate ([1]; acute addition, observed in individual traces at 10 μM and 30 μM) | broadening of the spikes ([1]; concentration dependent) | mean firing rate (spike rate) versus vehicle ([1]; different concentrations, with increased blue light stimulus) | spike rate ([1]; higher stimulation intensities (15 and 75 mW/cm^2)) | magnitude of the AhP depth (measured from the baseline fluorescence before the action potential) [1, 3] | spike rise time (measured from start to peak of the action potential) [1, 3] | spike width (measured from the base of the action potential) [1, 3] | time to the maximum of the after hyperpolarization (AhP) depth [1, 3] | EC50 [2] [nM] |
| --- | --- | --- | --- | --- | --- | --- | --- | --- | --- |
| C=C[C@H]1C[N@@]2CC[C@H]1C[C@@H]2[C@@H](O)c1ccnc2ccc(OC)cc12 [quinidine] | dramatic changes to both the spike waveform and firing rate | concentration dependent broadening of the spikes | dramatic reduction in spike rate | concentration dependent reduction in the spike rate | decreases | increases | increases | increases | – |
| CCOC(=O)Nc1ccc(NCc2ccc(F)cc2)cc1N [retigabine] | – | – | – | – | – | – | – | – | 2500 |

Reference: patent US12577529B2, “Methods for producing neural cells” (QUIVER HOLDINGS INC., priority 2021, dated 2026)
